Source: patent publication US9675823B2 (Colgate-Palmolive Company, priority 2012, dated 2017)

What was measured:
[1] = Precipitation time upon mixing the cysteine solution and the ZLC solution; assay type: physicochemical
[2] = pH of the mixture or of the acidified cysteine solution; settings: 0.05 g of cysteine in 1 mL of 0.0001 M HCl

Row | precipitation upon mixing ([1]; 0.05 g amino acid in 1 mL 0.0001M HCl, 4.95 g ZLC stock solution with no glycerol) | effect on precipitation time of ZLC ([1]; sulfur-containing amino acids) | pH of solution 1 [2] | Compound
1 | No precipitation occurred | no effect |  | CSCC[C@H](N)C(=O)O [methionine]
2 |  |  | 5.13 | N[C@@H](CS)C(=O)O [cysteine]
